Assay results from US20240279710A1, “FLUORESCENT PROBES” (TOHOKU TECHNO ARCH CO., LTD., priority 2021, published 2024).

Assays:
[1] = target: T1, recombinant human cathepsin B (Homo sapiens, UniProt P07858); assay: Fluorescence assay with cathepsin B; format: biochemical; details: 10 μM probe, 880 ng/mL cathepsin B, 50 mM TRIS pH 7.4, 37° C., excitation 475 nm, fluorescence 500-550 nm; FIG. 37
T1 construct: purchased R&D Systems 953-CY
Procedure: The fluorescence assay of Compound 19 with time was performed. Specifically, 880 ng/mL of recombinant human cathepsin B (953-CY; R&D Systems, MN, USA) was added to a 50 mM TRIS buffer (pH: 7.4, 2 mM EGTA, 2 mM DTE) containing 10 μM of the synthesized fluorescent probe to perform an enzyme reaction at 37° C. The same operations as those described above except that cathepsin B was not added were performed as a negative control. The results of the measurement of a change in fluorescence intensity with time by cathepsin B are shown in FIG. 37 (excitation wavelength: 475 nm, fluorescence wavelength: from 500 nm to 550 nm).

[2] = Optical characteristics: absorption and fluorescence spectrum at each pH; format: physicochemical; details: 10 mM phosphate buffer, pH 2 to 11, 1 μM probe, 1% DMSO, excitation 490 nm; neutral condition
Procedure: The absorption spectrum and fluorescence spectrum of Compound 19 at each pH were each measured. Specifically, a measurement solution was prepared by adding a solution (0.1 mM) of Compound 19 in DMSO to a 10 mM phosphate buffer at each pH in the pH range of from 2 to 11 so that the final probe concentration became 1 μM, and the final DMSO concentration became 1%. The fluorescence spectrum of the measurement solution was measured at an excitation wavelength of 490 nm.

[3] = target: T2, calpain-1 from human erythrocytes (Homo sapiens, UniProt P07384); assay: Reactivity with calpain-1: absorption/fluorescence spectra and HPLC; format: biochemical; details: 5 μM probe, calpain-1 100 units
T2 construct: calpain-1 from human erythrocytes; purchased Merck Millipore 208713; host or cells: human erythrocytes (natural source)
T2 sequence (P07384 1-714): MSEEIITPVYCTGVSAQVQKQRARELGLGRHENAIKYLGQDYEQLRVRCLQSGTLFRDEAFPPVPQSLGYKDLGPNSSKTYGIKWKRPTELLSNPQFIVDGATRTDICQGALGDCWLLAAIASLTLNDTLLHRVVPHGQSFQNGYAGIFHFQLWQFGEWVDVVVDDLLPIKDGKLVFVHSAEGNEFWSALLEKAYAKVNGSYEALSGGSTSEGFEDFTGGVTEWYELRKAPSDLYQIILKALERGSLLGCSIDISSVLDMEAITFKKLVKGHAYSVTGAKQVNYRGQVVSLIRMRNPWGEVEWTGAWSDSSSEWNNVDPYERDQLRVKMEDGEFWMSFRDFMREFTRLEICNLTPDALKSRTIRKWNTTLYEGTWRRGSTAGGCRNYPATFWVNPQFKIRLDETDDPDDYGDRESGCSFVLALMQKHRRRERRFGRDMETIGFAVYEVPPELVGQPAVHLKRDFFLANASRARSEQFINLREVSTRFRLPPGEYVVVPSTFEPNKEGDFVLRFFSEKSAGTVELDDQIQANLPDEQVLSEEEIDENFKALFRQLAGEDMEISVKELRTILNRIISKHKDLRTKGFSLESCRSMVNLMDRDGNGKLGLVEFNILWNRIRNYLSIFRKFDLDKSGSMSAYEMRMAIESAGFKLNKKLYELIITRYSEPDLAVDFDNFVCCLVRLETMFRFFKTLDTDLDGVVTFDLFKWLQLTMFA
T2 sequence (P04632 1-268 partner): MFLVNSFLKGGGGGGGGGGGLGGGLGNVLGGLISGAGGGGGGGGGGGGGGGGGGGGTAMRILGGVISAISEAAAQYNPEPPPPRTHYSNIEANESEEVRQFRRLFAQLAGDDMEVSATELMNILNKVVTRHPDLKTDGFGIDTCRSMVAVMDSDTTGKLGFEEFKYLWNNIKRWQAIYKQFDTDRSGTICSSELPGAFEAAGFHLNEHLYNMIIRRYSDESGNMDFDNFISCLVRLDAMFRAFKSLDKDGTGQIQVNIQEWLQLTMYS
Procedure: Calpain-1 was caused to act on Compound 19, and changes in absorption spectrum and fluorescence spectrum thereof were measured. Specifically, a solution (0.5 mM) of Compound 19 in DMSO and calpain-1 (100 units) (calpain-1 from human erythrocytes, Cat. No. 208713, Merck Millipore, the same holds true for the following) were added to a 50 mM TRIS buffer (pH: 7.4, 5 mM CaCl2, 100 mM NaCl, 1 mM EGTA) to produce 2 mL of a reaction solution (final probe concentration: 5 μM). An enzyme reaction was performed at 37° C. The fluorescence spectrum of the reaction solution was measured at an excitation wavelength of 490 nm. In addition, the reaction solution was analyzed by HPLC chromatography. Compound 19 to which calpain-1 was not added (final concentration: 5 μM) was used as a control.

calpain [4] = assay: Rat NMDA injury model, ocular fundus imaging; format: in vivo; details: for staining of nerve cells with HMRG in ocular fundus: probe 18.3 μM, 20 minutes after administration; for number of HMRG-positive cells in ocular fundus: FIG. 16
Procedure: Black Brown-Norway rats were each subjected to general anesthesia with isoflurane. PBS or N-methyl-D-aspartate (NMDA) (10 mM, 2 μL) was administered into an eye of the rat. 6 Hours after that, the rat was anesthetized with a mixed liquid of ketamine and xylazine again, and Compound 19 (18.3 μM, 3 μL) was administered into the eye. Images of an ocular fundus were taken with F-10 (a confocal biomicroscope manufactured by Nidek Co., Ltd.) before the administration of Compound 19 and 20 minutes after the administration.

calpain [5] = assay: Rabbit NMDA injury model, ocular fundus imaging; format: in vivo; details: for staining of nerve cells with HMRG in ocular fundus: 30, 45 and 60 minutes after probe into the eye (Compound 19 18.3 μM 19 μL; Compound 16 20 μM 19 μl or 38 μl)
Procedure: Black Dutch rabbits were each subjected to general anesthesia with a mixed liquid of ketamine and xylazine. N-Methyl-D-aspartate (NMDA) (12 mM, 50 μL) or PBS was administered into an eye of the rabbit. 9 Hours after that, the rabbit was anesthetized with a mixed liquid of ketamine and xylazine again, and Compound 19 (18.3 μM, 19 μL), Compound 16 (20 μM, 19 μl), or Compound 16 (20 μM, 38 μl) was administered into the eye. Images of an ocular fundus were taken with Mirante (a confocal scanning diode laser ophthalmoscope manufactured by Nidek Co., Ltd.) before the administration of each of the compounds and after the lapse of a predetermined time from the administration.

[6] = rabbits administered NMDA, Compound 19 18.3 μM 19 μL, FIG. 23

COCC(=O)N[C@@H](CC(C)C)C(=O)N[C@@H](CCSC)C(=O)Nc1ccc2c(c1)Oc1cc(N)ccc1C21OCc2ccccc21 (some centres unmarked) [Compound 19]
change in fluorescence intensity with time by cathepsin B [1]: functioned as a fluorescent probe for cathepsin B | absorption spectrum and fluorescence spectrum at each pH [2]: mainly colorless and nonfluorescent | changes in absorption spectrum and fluorescence spectrum by addition of calpain-1 ([3]; 50 mM TRIS pH 7.4, 5 mM CaCl2, 37° C., excitation 490 nm): increases in absorbance and fluorescence intensity | change in HPLC chromatogram by addition of calpain-1 (reaction product) ([3]; 37° C.): produced HMRG serving as a fluorescent substance | staining of nerve cells with HMRG in ocular fundus (calpain [4]; rats administered NMDA (10 mM, 2 μL), 3 μL into the eye 6 hours later): many of the nerve cells were clearly stained | number of HMRG-positive cells in ocular fundus (calpain [4]; rats administered NMDA): significant increase | number of HMRG-positive cells in ocular fundus (calpain [4]; rats administered PBS): extremely small | staining of nerve cells with HMRG in ocular fundus (calpain [4]; rats administered PBS, 3 μL into the eye): substantially no nerve cells are stained | number of HMRG-positive cells in PBS rabbits compared to NMDA rabbits (calpain [5]; Compound 19 (19 μL) and Compound 16 (38 μl), FIG. 23): significantly reduced | reactivity in relation to dose, compared with Compound 16 (calpain [5]; rabbit NMDA injury model, administration into the eye): satisfactory reactivity even when used in a dose smaller than that of Compound 16 | staining of nerve cells with HMRG in ocular fundus (calpain [5]; rabbits administered NMDA (12 mM, 50 μL)): many nerve cells were clearly stained with HMRG | number of HMRG-positive cells compared to Compound 16 (19 μl) (calpain [5]; [6]): significantly increased | number of HMRG-positive cells compared to Compound 16 (38 μl) (calpain [5]; [6]): tended to increase | staining of nerve cells with HMRG in ocular fundus (calpain [5]; rabbits administered PBS): substantially no staining of the nerve cells with HMRG
